Activity calls are given as the source filed them. No cut-off for these calls is given here. Residues, ends and D or L forms follow the SMILES beside them.
Legend:
Neutrophil [1] = assay: Induction of chemotaxis in BALB/c mouse neutrophils assessed as increase in ratio of cell polarization at 100 nM measured for 15 mins by Zigmond-chamber based microscopy (reference value: 14.6 %); type: functional; details: 0.25 h
Neutrophil [2] = assay: Induction of ROS production in BALB/c mouse neutrophils at 100 nM incubated for 2 hrs by DCFH-DA staining based analysis; type: functional, cell-based
[3] = Drug uptake in Aprepitant-treated mouse RAW264.7 cells at 20 uM incubated for 30 mins by flow cytometry; type: ADME, cell-based; details: raw264.7, 0.5 h
[4] = Drug uptake in Aprepitant-treated HUVEC cells at 5 to 20 uM incubated for 30 mins by flow cytometry; type: ADME, cell-based; details: human, 0.5 h, dose 5-20 µM
HaCaT [5] = assay: Drug uptake in human HaCaT cells incubated for 30 mins by flow cytometry; type: functional, cell-based; details: dose 5-20 µM
[6] = Drug uptake in mouse RAW264.7 cells by flow cytometry; type: ADME, cell-based; details: dose 2.5-40 µM
[7] = Drug uptake in BALB/c mouse neutrophils by flow cytometry; type: ADME, cell-based; details: neutrophil, dose 2.5-40 µM
[8] = Drug uptake in Aprepitant-treated BALB/c mouse neutrophils at 20 uM incubated for 30 mins by flow cytometry; type: ADME, cell-based; details: neutrophil, 0.5 h
HaCaT [9] = assay: Drug uptake in Aprepitant-treated human HaCaT cells 5 to 20 uM incubated for 30 mins by flow cytometry; type: functional, cell-based; details: dose 5-20 µM
[10] = Drug uptake in HUVEC cells incubated for 30 mins by flow cytometry; type: ADME, cell-based; details: human, 0.5 h, dose 5-20 µM

**Q.** Which Activity (Neutrophil [1]) does the source give for `CSCC[C@H](NC=O)C(=O)N[C@@H](CC(C)C)C(=O)N[C@@H](Cc1ccccc1)C(=O)O` here?
**A.** 56.3%

**Q.** Which Activity (Neutrophil [2]) does the source give for `CCCCCCCCCCCCCC(=O)O[C@@H]1[C@@H](C)[C@]2(O)[C@@H](C=C(CO)C[C@]3(O)C(=O)C(C)=C[C@@H]23)[C@@H]2C(C)(C)[C@]12OC(C)=O` here?
**A.** Active

**Q.** Which Drug uptake [3] does the source give for `CSCC[C@H](NC(=O)[C@H](CC(C)C)NC(=O)CNC(=O)[C@H](Cc1ccc(O)cc1)NC(=O)[C@H](Cc1ccccc1)NC(=O)[C@H](CCCNC(=N)N)NC(=O)[C@H](CC(=O)O)NC(=O)[C@@H]1CCCN1C(=O)[C@H](CC(N)=O)NC(=O)[C@@H]1CCCN1C(=O)[C@H](CCCCN)NC(=S)Nc1ccc(-c2c3ccc(=O)cc-3oc3cc(O)ccc23)c(C(=O)O)c1)C(N)=O` (HELM PEPTIDE1{[O=C(O)c1cc(NC(=S)[*:2])ccc1-c1c2ccc(=O)cc-2oc2cc(O)ccc12].K.P.N.P.D.R.F.Y.G.L.M.[am]}$$$$V2.0) here?
**A.** Not Active

**Q.** And the Drug uptake [4]?
**A.** Not Active

**Q.** What about the Drug uptake (HaCaT [5]) of the same compound?
**A.** Dose-Dependent Effect

**Q.** And the Drug uptake [6]?
**A.** Dose-Dependent Effect

**Q.** What about the Drug uptake [7] of the same compound?
**A.** Dose-Dependent Effect

**Q.** What about the Drug uptake [8] of the same compound?
**A.** Not Active

**Q.** What about the Drug uptake (HaCaT [9]) of the same compound?
**A.** inactive

**Q.** What about the Drug uptake [10] of the same compound?
**A.** Dose-Dependent Effect

From ChEMBL document CHEMBL5375968, “Peptide TK-HR from the Skin of Chinese Folk Medicine Frog Hoplobatrachus Rugulosus Accelerates Wound Healing via the Activation of the Neurokinin-1 Receptor” (J Med Chem, 2023)
